Data reported in patent US20100311714A1, “1H-IMIDAZO[4,5-c]QUINOLINONE COMPOUNDS” (priority 2009, published 2010).
pIC50: −log10 of the molar value.

Target: T1, PI3K gamma (Homo sapiens, UniProt P48736)
T1 construct: His tag (C); made in house; host or cells: construct from Roger Williams lab (pVL1393); baculovirus BV950; Tn5 (Trichoplusia ni) or TiniPro insect cells
Test: PI3K gamma kinase assay (Kinase-Glo luminescence)
Assay type: biochemical
Conditions: read-out: PI3Kgamma/IC50
Experimental: In a more preferred assay, the kinase reaction is performed in a final volume of 10 μL per well of a low volume non binding CORNING, 384 well black plate (Cat. No. #3676). The final concentrations of ATP and phosphatidyl inositol (PI) in the assay are 1 μM and 10 μg/mL respectively. The reaction is started by the addition of ATP.
The components of the assay are added per well as follows:
50 nL test compounds in 90% DMSO per well, in columns 1-20, 8 concentrations (⅓ and 1/3.33 serial dilution step) in single. • Low control: […] of 90% DMSO in half the wells of columns 23-24 (0.45% in final). • High control: 50 nL of reference compound (e.g. compound of Example 7 in WO 2006/122806) in the other half of columns 23-24 (2.5 μM in final). • Standard: 50 nL of reference compound as just mentioned diluted as the test compounds in columns 21-22 • 20 mL ‘buffer’ are prepared per assay: • 200 μL of 1M TRIS HCl pH7.5 (10 mM in final) • 60 μL of 1M MgCl2 (3 mM in final) • 500 μL of 2M NaCl (50 mM in final) • 100 μL of 10% CHAPS (0.05% in final) • 200 μL of 100 mM DTT (1 mM in final) • 18.94 mL of nanopure water • 10 mL ‘PI’ are prepared per assay: • 200 μL of 1 mg/ml L-alpha-Phosphatidylinositol (Liver Bovine, Avanti Polar Lipids Cat. No. 840042C MW=909.12) prepared in 3% OctylGlucoside (10 μg/ml in final) • 9.8 mL of ‘buffer’ • 10 mL ‘ATP’ are prepared per assay: • 6.7 μL of 3 mM stock of ATP giving a final concentration of 1 μM per well • 10 mL of ‘buffer’ • 2.5 mL of each PI3K construct are prepared per assay in ‘PI’ with the following final concentration: • 10 nM PI3K alfa EMV B1075 • 25 nM beta EMV BV949 • 10 nM delta EMV BV1060 • 150 nM gamma EMV BV950 • 5 μL of ‘PI/PI3K’ are added per well. • 5 μl ‘ATP’ are added per well to start the reaction. • The plates are then incubated at room temperature for 60 minutes (alfa, beta, delta) or 120 minutes (gamma). • The reaction is terminated by the addition of 10 μL Kinase-Glo (Promega Cat. No. #6714). • The assay plates are read after 10 minutes in Synergy 2 reader (BioTek, Vermont USA) with an integration time of 100 milliseconds and sensitivity set to 191. • Output: The High control is around 60′000 counts and the Low control is 30′000 or lower • This luminescence assay gives a useful Z′ ratio between 0.4 and 0.7
PI3K gamma is purified in two chromatographic steps: immobilized metal affinity chromatography (IMAC) on a Ni Sepharose resin (GE Healthcare) and gel filtration (GFC) utilizing a Superdex 200 26/60 column (GE Healthcare). All buffers are chilled to 4° C. and lysis is performed chilled on ice. Column fractionation is performed rapidly at room temperature. Typically frozen insect cells are lysed in a hypertonic lysis buffer and applied to a prepared IMAC column. The resin is washed with 3-5 column volumes of lysis buffer, followed by 3-5 column volumes wash buffer containing 45 mM imidazole, and the target protein is then eluted with a buffer containing 250 mM imidazole. Fractions are analyzed by Coomassie stained SDS-PAGE gels, and fractions containing target protein are pooled and applied to a prepared GFC column. Fractions from the GFC column are analyzed by Coomassie stained SDS-PAGE gels, and fractions containing target protein are pooled. The final pool is dialyzed into a storage buffer containing 50% glycerol and stored at −20° C. The final pool is assayed for activity in the phosphoinostitol kinase assay.
IC50 is determined by a four parameter curve fitting routine that comes along with “excel fit”. A 4 Parameter logistic equation is used to calculate IC50 values (IDBS XLfit) of the percentage inhibition of each compound at 8 concentrations (usually 10, 3.0, 1.0, 0.3, 0.1, 0.030, 0.010 and 0.003 μM). Alternatively, IC50 values are calculated using idbsXLfit model 204, which is a 4 parameter logistic model.

T1 sequence (P48736 144-1102 limits assumed): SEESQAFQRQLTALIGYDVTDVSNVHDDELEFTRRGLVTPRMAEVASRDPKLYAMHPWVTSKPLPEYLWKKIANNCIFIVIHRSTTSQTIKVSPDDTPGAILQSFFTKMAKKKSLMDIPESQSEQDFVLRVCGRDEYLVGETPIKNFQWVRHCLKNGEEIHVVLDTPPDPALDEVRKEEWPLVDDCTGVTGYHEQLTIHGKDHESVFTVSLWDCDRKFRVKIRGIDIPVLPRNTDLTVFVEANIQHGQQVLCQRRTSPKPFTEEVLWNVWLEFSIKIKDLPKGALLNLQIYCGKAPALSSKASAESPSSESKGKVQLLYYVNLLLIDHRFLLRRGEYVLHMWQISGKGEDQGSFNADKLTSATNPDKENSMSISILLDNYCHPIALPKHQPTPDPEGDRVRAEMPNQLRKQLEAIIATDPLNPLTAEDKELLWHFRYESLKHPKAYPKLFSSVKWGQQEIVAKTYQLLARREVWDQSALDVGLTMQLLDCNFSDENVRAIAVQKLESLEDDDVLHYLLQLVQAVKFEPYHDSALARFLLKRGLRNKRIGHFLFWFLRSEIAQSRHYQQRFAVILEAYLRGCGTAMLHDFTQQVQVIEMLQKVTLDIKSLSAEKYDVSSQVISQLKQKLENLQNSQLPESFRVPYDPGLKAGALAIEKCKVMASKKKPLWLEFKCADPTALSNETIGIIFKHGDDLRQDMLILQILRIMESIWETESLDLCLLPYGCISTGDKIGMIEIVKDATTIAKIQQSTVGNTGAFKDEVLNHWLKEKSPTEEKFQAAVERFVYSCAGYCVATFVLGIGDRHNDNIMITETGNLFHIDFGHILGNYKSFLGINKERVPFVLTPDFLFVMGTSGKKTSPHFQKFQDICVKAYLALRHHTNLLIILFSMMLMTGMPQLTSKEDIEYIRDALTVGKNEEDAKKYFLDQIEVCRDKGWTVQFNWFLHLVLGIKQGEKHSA

COc1ccc(-c2ccc3ncc4c(c3c2)n(-c2cccnc2C)c(=O)n4C)cc1OC [Example 2.9, 8-(3,4-Dimethoxy-phenyl)-3-methyl-1-(2-methyl-pyridin-3-yl)-1,3-dihydro-imidazo[4,5-c]quinolin-2-one]
pIC50: 6.90

Cc1ncccc1-n1c(=O)n(C)c2cnc3ccc(-c4ccc(N)nc4)cc3c21 [Example 2.7, 8-(6-Amino-pyridin-3-yl)-3-methyl-1-(2-methyl-pyridin-3-yl)-1,3-dihydro-imidazo[4,5-c]quinolin-2-one]
pIC50: 6.41

CNc1ncc(-c2ccc3ncc4c(c3c2)n(-c2ncccc2C)c(=O)n4C)cn1 [Example 3.4, 3-Methyl-8-(2-methylamino-pyrimidin-5-yl)-1-(3-methyl-pyridin-2-yl)-1,3-dihydro-imidazo[4,5-c]quinolin-2-one]
pIC50: 6.41

CNC(=O)c1ccc(-c2ccc3ncc4c(c3c2)n(-c2ncccc2C)c(=O)n4C)cc1 [Example 3.5, N-Methyl-4-[3-methyl-1-(3-methyl-pyridin-2-yl)-2-oxo-2,3-dihydro-1H-imidazo[4,5-c]quinolin-8-yl]-benzamide]
pIC50: 6.36

Cc1cccnc1-n1c(=O)n(C)c2cnc3ccc(-c4ccc(N(C)C)nc4)cc3c21 [Example 3.11, 8-(6-Dimethylamino-pyridin-3-yl)-3-methyl-1-(3-methyl-pyridin-2-yl)-1,3-dihydro-imidazo[4,5-c]quinolin-2-one]
pIC50: 6.07

COc1ncccc1-n1c(=O)n(C)c2cnc3ccc(-c4cnc5[nH]ccc5c4)cc3c21 [Example 1.2, 1-(2-Methoxy-pyridin-3-yl)-3-methyl-8-(1H-pyrrolo[2,3-b]pyridin-5-yl)-1,3-dihydro-imidazo[4,5-c]quinolin-2-one]
pIC50: 6.77

CCOc1ccc(-c2ccc3ncc4c(c3c2)n(-c2cnccc2C)c(=O)n4C)cn1 [Example 4.2, 8-(6-Ethoxy-pyridin-3-yl)-3-methyl-1-(4-methyl-pyridin-3-yl)-1,3-dihydro-imidazo[4,5-c]quinolin-2-one]
pIC50: 6.26

CCOc1ccc(-c2ccc3ncc4c(c3c2)n(-c2ncccc2C)c(=O)n4C)cn1 [Example 3.6, 8-(6-Ethoxy-pyridin-3-yl)-3-methyl-1-(3-methyl-pyridin-2-yl)-1,3-dihydro-imidazo[4,5-c]quinolin-2-one]
pIC50: 6.28

Cc1ncccc1-n1c(=O)n(C)c2cnc3ccc(-c4ccc(CO)nc4)cc3c21 [Example 2.6, 8-(6-Hydroxymethyl-pyridin-3-yl)-3-methyl-1-(2-methyl-pyridin-3-yl)-1,3-dihydro-imidazo[4,5-c]quinolin-2-one]
pIC50: 6.04

CN(C)c1ccc(-c2ccc3ncc4c(c3c2)n(-c2cccnc2)c(=O)n4C)cn1 [Example 5.3, 8-(6-Dimethylamino-pyridin-3-yl)-3-methyl-1-pyridin-3-yl-1,3-dihydro-imidazo[4,5-c]quinolin-2-one]
pIC50: 6.44

CNc1ccc(-c2ccc3ncc4c(c3c2)n(-c2cccnc2C)c(=O)n4C)cn1 [Example 2.13, 3-Methyl-8-(6-methylamino-pyridin-3-yl)-1-(2-methyl-pyridin-3-yl)-1,3-dihydro-imidazo[4,5-c]quinolin-2-one]
pIC50: 6.71

COc1ccc(-c2ccc3ncc4c(c3c2)n(-c2ncccc2C)c(=O)n4C)cc1OC [Example 3.10, 8-(3,4-Dimethoxy-phenyl)-3-methyl-1-(3-methyl-pyridin-2-yl)-1,3-dihydro-imidazo[4,5-c]quinolin-2-one]
pIC50: 6.51

CCOc1ccc(-c2ccc3ncc4c(c3c2)n(-c2cccnc2F)c(=O)n4C)cn1 [Example 6.1, 8-(6-Ethoxy-pyridin-3-yl)-1-(2-fluoro-pyridin-3-yl)-3-methyl-1,3-dihydro-imidazo[4,5-c]quinolin-2-one]
pIC50: 6.69

Cc1ncccc1-n1c(=O)n(C)c2cnc3ccc(-c4ccc(C(N)=O)cc4)cc3c21 [Example 2.3, 4-[3-Methyl-1-(2-methyl-pyridin-3-yl)-2-oxo-2,3-dihydro-1H-imidazo[4,5-c]quinolin-8-yl]-benzamide]
pIC50: 6.64

Cc1ncccc1-n1c(=O)n(C)c2cnc3ccc(-c4cnc(N)c(C(F)(F)F)c4)cc3c21 [Example 2.11, 8-(6-Amino-5-trifluoromethyl-pyridin-3-yl)-3-methyl-1-(2-methyl-pyridin-3-yl)-1,3-dihydro-imidazo[4,5-c]quinolin-2-one]
pIC50: 6.91

Cn1c(=O)n(-c2cccnc2F)c2c3cc(-c4cnc(N)c(C(F)(F)F)c4)ccc3ncc21 [Example 6.2, 8-(6-Amino-5-trifluoromethyl-pyridin-3-yl)-1-(2-fluoro-pyridin-3-yl)-3-methyl-1,3-dihydro-imidazo[4,5-c]quinolin-2-one]
pIC50: 6.86

Cc1cccnc1-n1c(=O)n(C)c2cnc3ccc(-c4ccc(C(N)=O)cc4)cc3c21 [Example 3.3, 4-[3-Methyl-1-(3-methyl-pyridin-2-yl)-2-oxo-2,3-dihydro-1H-imidazo[4,5-c]quinolin-8-yl]-benzamide]
pIC50: 6.49

Cn1c(=O)n(-c2cccnc2)c2c3cc(-c4ccc(CO)nc4)ccc3ncc21 [Example 5.1, 8-(6-Hydroxymethyl-pyridin-3-yl)-3-methyl-1-pyridin-3-yl-1,3-dihydro-imidazo[4,5-c]quinolin-2-one]
pIC50: 6.03

COc1ccc(-c2ccc3ncc4c(c3c2)n(-c2cccnc2C)c(=O)n4C)cn1 [Example 2.12, 8-(6-Methoxy-pyridin-3-yl)-3-methyl-1-(2-methyl-pyridin-3-yl)-1,3-dihydro-imidazo[4,5-c]quinolin-2-one]
pIC50: 6.62

COc1ncccc1-n1c(=O)n(C)c2cnc3ccc(-c4ccc(C(N)=O)cc4)cc3c21 [Example 1.6, 4-[1-(2-Methoxy-pyridin-3-yl)-3-methyl-2-oxo-2,3-dihydro-1H-imidazo[4,5-c]quinolin-8-yl]-benzamide]
pIC50: 6.92

COc1ccc(-c2ccc3ncc4c(c3c2)n(-c2cnccc2C)c(=O)n4C)cn1 [Example 4.3, 8-(6-Methoxy-pyridin-3-yl)-3-methyl-1-(4-methyl-pyridin-3-yl)-1,3-dihydro-imidazo[4,5-c]quinolin-2-one]
pIC50: 6.36

Cc1cccnc1-n1c(=O)n(C)c2cnc3ccc(-c4cnc(N)c(C(F)(F)F)c4)cc3c21 [Example 3.12, 8-(6-Amino-5-trifluoromethyl-pyridin-3-yl)-3-methyl-1-(3-methyl-pyridin-2-yl)-1,3-dihydro-imidazo[4,5-c]quinolin-2-one]
pIC50: 6.69
